According to US9555038B2, “Heterocycle-substituted tetracyclic compounds and methods of use thereof for the treatment of viral diseases” (Merck Sharp & Dohme Corp., priority 2013, dated 2017):
Read-outs that look alike come from different tables or passages of the source.

How the values were obtained:
HCV replicon 1A = assay: Cell-based HCV Replicon Assay A, replicon 1A
Procedure, shortened: (§1)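 2000 cells/well; 10 serial dilutions, top concentration 333.3 nM to 1.667 nM; 0.5% DMSO, 5% FBS; 3 days; lysis; multiplex TaqMan RT-PCR (NS5B/Neo plus cyclophilin), RNA from linear Ct standard curves.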

HCV replicon 1AY93H = assay: Cell-based HCV Replicon Assay A, replicon 1AY93H
Procedure, shortened: as §1

HCV replicon 2B = assay: Cell-based HCV Replicon Assay A, replicon 2B
Procedure, shortened: as §1

HCV replicon 1AQ30D = assay: Cell-based HCV Replicon Assay B, replicon 1AQ30D
Procedure, shortened: (§2)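 EC50 defined as the drug concentration giving a CT increase of 1 above projected baseline, from real-time RT-PCR of replicon RNA using genotype-specific primers and probes. Cells were seeded in 5% FBS, dosed after 24 h and incubated 3 days before lysis.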

HCV replicon 1B = assay: Cell-based HCV Replicon Assay B, replicon 1B
Procedure, shortened: as §2

[1] = read-out: 1A Y93H IC50, replicon 1AY93H
[2] = read-out: 1A Q30D IC50, replicon 1AQ30D
[3] = replicon 1AY93H, read-out: 1A Y93H IC50
[4] = replicon 1AQ30D, read-out: 1A Q30D IC50

COC(=O)NC(C(=O)N1CCC[C@H]1c1ncc(-c2ccc3c(c2)cc2n3C(c3cnc(C4CC4)s3)Oc3cc(-c4cnc([C@@H]5CCCN5C(=O)[C@@H](NC(=O)OC)C(C)C)[nH]4)cc(F)c3-2)[nH]1)C1CCOC(C)(C)C1 (single isomer, unassigned) [Compound 308]
IC50 (HCV replicon 1A): 4.1 pM
IC50 (HCV replicon 1AY93H; [1]): 0.0757 nM
IC50 (HCV replicon 2B; read-out: 2B IC50, replicon 2B): 0.047 nM
IC50 (HCV replicon 1AQ30D; [2]): 0.496 nM
IC50 (HCV replicon 1B; Hepatitis C virus): 3 pM

COC(=O)NC(C(=O)N1CCC[C@H]1c1ncc(-c2ccc3c(c2)cc2n3C(c3cnc(C4CC4)s3)Oc3cc(-c4cnc([C@@H]5CCCN5C(=O)[C@@H](NC(=O)OC)C(C)C)[nH]4)cc(F)c3-2)[nH]1)C1CCOC(C)(C)C1 (single isomer, unassigned) [Compound 309]
IC50 (HCV replicon 1A): 1.8 pM
IC50 (HCV replicon 1AY93H; [1]): 0.0218 nM
IC50 (HCV replicon 2B; read-out: 2B IC50, replicon 2B): 0.003 nM
IC50 (HCV replicon 1AQ30D; [2]): 0.047 nM
IC50 (HCV replicon 1B): 6 pM

COC(=O)NC(C(=O)N1[C@@H]2C[C@@H]2C[C@H]1c1ncc(-c2ccc3c(c2)cc2n3C(c3cnc(C4CC4)s3)Oc3cc(-c4cnc([C@@H]5CCCN5C(=O)[C@@H](NC(=O)OC)C(C)C)[nH]4)cc(F)c3-2)[nH]1)C1C[C@@H](C)O[C@@H](C)C1 (single isomer, unassigned) [Compound 310]
IC50 (HCV replicon 1A; Hepatitis C virus): 2.6 pM
IC50 (HCV replicon 1AY93H; [1]): 0.0954 nM
IC50 (HCV replicon 2B; read-out: 2B IC50, replicon 2B): 0.12 nM
IC50 (HCV replicon 1AQ30D; [2]): 0.806 nM
IC50 (HCV replicon 1B; Hepatitis C virus): 3 pM

COC(=O)NC(C(=O)N1[C@@H]2C[C@@H]2C[C@H]1c1ncc(-c2ccc3c(c2)cc2n3C(c3cnc(C4CC4)s3)Oc3cc(-c4cnc([C@@H]5CCCN5C(=O)[C@@H](NC(=O)OC)C(C)C)[nH]4)cc(F)c3-2)[nH]1)C1C[C@@H](C)O[C@@H](C)C1 (single isomer, unassigned) [Compound 311]
IC50 (HCV replicon 1A): 2 pM
IC50 (HCV replicon 1AY93H; [1]): 0.0019 nM
IC50 (HCV replicon 2B; read-out: 2B IC50, replicon 2B): 0.003 nM
IC50 (HCV replicon 1AQ30D; [2]): 0.011 nM
IC50 (HCV replicon 1B): 2 pM

COC(=O)NC(C(=O)N1CCCC1c1ncc(-c2cc(F)c3c(c2)OC(c2cnc(C4CCCC4)s2)n2c-3cc3cc(-c4cnc(C5CC6CC6N5C(=O)C(NC(=O)OC)C(C)C)[nH]4)ccc32)[nH]1)C(C)C (single isomer, unassigned) [Compound 319]
IC50 (HCV replicon 1A): 2.5 pM
IC50 (HCV replicon 1AY93H; [3]): 0.0029 nM
IC50 (HCV replicon 2B; replicon 2B, read-out: 2B IC50): 0.017 nM
IC50 (HCV replicon 1AQ30D; [4]): 0.051 nM
IC50 (HCV replicon 1B): 3 pM

COC(=O)NC(C(=O)N1CCCC1c1ncc(-c2cc(F)c3c(c2)OC(c2cnc(C4CCCC4)s2)n2c-3cc3cc(-c4cnc(C5CC6CC6N5C(=O)C(NC(=O)OC)C(C)C)[nH]4)ccc32)[nH]1)C(C)C (single isomer, unassigned) [Compound 320]
IC50 (HCV replicon 1A): 1.7 pM
IC50 (HCV replicon 1AY93H; [3]): 0.036 nM
IC50 (HCV replicon 2B; replicon 2B, read-out: 2B IC50): 0.203 nM
IC50 (HCV replicon 1AQ30D; [4]): 0.59 nM
IC50 (HCV replicon 1B): 3 pM

COC(=O)NC(C(=O)N1[C@@H]2C[C@@H]2C[C@H]1c1ncc(-c2ccc3c(c2)cc2n3C(c3cnc(C4CCCC4)s3)Oc3cc(-c4cnc([C@@H]5CCCN5C(=O)[C@@H](NC(=O)OC)C(C)C)[nH]4)cc(F)c3-2)[nH]1)C1CCOC(C)(C)C1 (single isomer, unassigned) [Compound 321]
IC50 (HCV replicon 1A; Hepatitis C virus): 2.9 pM
IC50 (HCV replicon 1AY93H; [1]): 0.0019 nM
IC50 (HCV replicon 2B; read-out: 2B IC50, replicon 2B): 0.004 nM
IC50 (HCV replicon 1AQ30D; [2]): 0.007 nM
IC50 (HCV replicon 1B; Hepatitis C virus): 3 pM

COC(=O)NC(C(=O)N1[C@@H]2C[C@@H]2C[C@H]1c1ncc(-c2ccc3c(c2)cc2n3C(c3cnc(C4CCCC4)s3)Oc3cc(-c4cnc([C@@H]5CCCN5C(=O)[C@@H](NC(=O)OC)C(C)C)[nH]4)cc(F)c3-2)[nH]1)C1CCOC(C)(C)C1 (single isomer, unassigned) [Compound 322]
IC50 (HCV replicon 1A): 2.7 pM
IC50 (HCV replicon 1AY93H; [1]): 0.0512 nM
IC50 (HCV replicon 2B; read-out: 2B IC50, replicon 2B): 0.058 nM
IC50 (HCV replicon 1AQ30D; [2]): 0.324 nM
IC50 (HCV replicon 1B): 4 pM

COC(=O)N[C@H](C(=O)N1CCC[C@H]1c1ncc(-c2cc(F)c3c(c2)OC(c2cnc(-c4ccncc4)s2)n2c-3cc3cc(-c4cnc([C@@H]5CCCN5C(=O)[C@@H](NC(=O)OC)C(C)C)[nH]4)ccc32)[nH]1)C(C)C (single isomer, unassigned) [Compound 409]
IC50 (HCV replicon 1A; Hepatitis C virus): 10.8 pM
IC50 (HCV replicon 1AY93H; Hepatitis C virus, read-out: 1A Y93H IC50 (nM), replicon 1AY93H): 0.577 nM
IC50 (HCV replicon 2B; Hepatitis C virus, read-out: 2B IC50 (nM), replicon 2B): 1.28 nM
IC50 (HCV replicon 1AQ30D; Hepatitis C virus, read-out: 1A Q30D IC50 (nM), replicon 1AQ30D): 5.1 nM
IC50 (HCV replicon 1B; Hepatitis C virus): 7 pM

COC(=O)NC(C(=O)N1[C@@H]2C[C@@H]2C[C@H]1c1ncc(-c2ccc3c(c2)cc2n3C(c3cnc(CC(C)C)s3)Oc3cc(-c4cnc([C@@H]5CCCN5C(=O)[C@@H](NC(=O)OC)C(C)C)[nH]4)cc(F)c3-2)[nH]1)C1CCOC(C)(C)C1 (single isomer, unassigned) [Compound 437]
IC50 (HCV replicon 1A): 2.2 pM
IC50 (HCV replicon 1AY93H; [3]): 0.176 nM
IC50 (HCV replicon 2B; replicon 2B, read-out: 2B IC50): 0.21 nM
IC50 (HCV replicon 1AQ30D; [4]): 0.283 nM
IC50 (HCV replicon 1B): 3.1 pM

COC(=O)NC(C(=O)N1[C@@H]2C[C@@H]2C[C@H]1c1ncc(-c2ccc3c(c2)cc2n3C(c3cnc(CC(C)C)s3)Oc3cc(-c4cnc([C@@H]5CCCN5C(=O)[C@@H](NC(=O)OC)C(C)C)[nH]4)cc(F)c3-2)[nH]1)C1CCOC(C)(C)C1 (single isomer, unassigned) [Compound 438]
IC50 (HCV replicon 1A): 3.6 pM
IC50 (HCV replicon 1AY93H; [3]): 0.004 nM
IC50 (HCV replicon 2B; replicon 2B, read-out: 2B IC50): 0.006 nM
IC50 (HCV replicon 1AQ30D; [4]): 0.03 nM
IC50 (HCV replicon 1B): 3.7 pM

COC(=O)NC(C(=O)N1[C@@H]2C[C@@H]2C[C@H]1c1ncc(-c2ccc3c(c2)cc2n3C(c3cnc(CC(C)C)s3)Oc3cc(-c4cnc([C@@H]5CCCN5C(=O)[C@@H](NC(=O)OC)C(C)C)[nH]4)cc(F)c3-2)[nH]1)C1CCOC(C)(C)C1 (single isomer, unassigned) [Compound 439]
IC50 (HCV replicon 1A): 2.7 pM
IC50 (HCV replicon 1AY93H; [3]): 0.004 nM
IC50 (HCV replicon 2B; replicon 2B, read-out: 2B IC50): 0.006 nM
IC50 (HCV replicon 1AQ30D; [4]): 0.018 nM
IC50 (HCV replicon 1B): 2.1 pM

COC(=O)NC(C(=O)N1[C@@H]2C[C@@H]2C[C@H]1c1ncc(-c2ccc3c(c2)cc2n3C(c3cnc(CC(C)C)s3)Oc3cc(-c4cnc([C@@H]5CCCN5C(=O)[C@@H](NC(=O)OC)C(C)C)[nH]4)cc(F)c3-2)[nH]1)C1C[C@@H](C)O[C@@H](C)C1 (single isomer, unassigned) [Compound 440]
IC50 (HCV replicon 1A; Hepatitis C virus): 2.3 pM
IC50 (HCV replicon 1AY93H; [1]): 0.146 nM
IC50 (HCV replicon 2B; read-out: 2B IC50, replicon 2B): 0.32 nM
IC50 (HCV replicon 1AQ30D; [2]): 0.967 nM
IC50 (HCV replicon 1B; Hepatitis C virus): 3.6 pM

COC(=O)NC(C(=O)N1[C@@H]2C[C@@H]2C[C@H]1c1ncc(-c2ccc3c(c2)cc2n3C(c3cnc(CC(C)C)s3)Oc3cc(-c4cnc([C@@H]5CCCN5C(=O)[C@@H](NC(=O)OC)C(C)C)[nH]4)cc(F)c3-2)[nH]1)C1C[C@@H](C)O[C@@H](C)C1 (single isomer, unassigned) [Compound 441]
IC50 (HCV replicon 1A): 2.5 pM
IC50 (HCV replicon 1AY93H; [1]): 0.003 nM
IC50 (HCV replicon 2B; read-out: 2B IC50, replicon 2B): 0.006 nM
IC50 (HCV replicon 1AQ30D; [2]): 0.011 nM
IC50 (HCV replicon 1B): 3.4 pM

CCC(CC)c1ncc(C2Oc3cc(-c4cnc([C@@H]5CCCN5C(=O)[C@@H](NC(=O)OC)C(C)C)[nH]4)cc(F)c3-c3cc4cc(-c5cnc([C@@H]6CCCN6C(=O)C(NC(=O)OC)C6CCOC(C)(C)C6)[nH]5)ccc4n32)s1 (single isomer, unassigned) [Compound 444]
IC50 (HCV replicon 1A; Hepatitis C virus): 2.2 pM
IC50 (HCV replicon 1AY93H; [1]): 0.005 nM
IC50 (HCV replicon 2B; read-out: 2B IC50, replicon 2B): 0.007 nM
IC50 (HCV replicon 1AQ30D; [2]): 0.038 nM
IC50 (HCV replicon 1B; Hepatitis C virus): 3.8 pM

CCC(CC)c1ncc(C2Oc3cc(-c4cnc([C@@H]5CCCN5C(=O)[C@@H](NC(=O)OC)C(C)C)[nH]4)cc(F)c3-c3cc4cc(-c5cnc([C@@H]6CCCN6C(=O)C(NC(=O)OC)C6CCOC(C)(C)C6)[nH]5)ccc4n32)s1 (single isomer, unassigned) [Compound 445]
IC50 (HCV replicon 1A): 2.8 pM
IC50 (HCV replicon 1AY93H; [1]): 0.107 nM
IC50 (HCV replicon 2B; read-out: 2B IC50, replicon 2B): 0.096 nM
IC50 (HCV replicon 1AQ30D; [2]): 0.949 nM
IC50 (HCV replicon 1B): 4.6 pM

COC(=O)NC(C(=O)N1CCC[C@H]1c1ncc(-c2ccc3c(c2)cc2n3C(c3cnc(C4(C)CCCC4)s3)Oc3cc(-c4cnc([C@@H]5CCCN5C(=O)[C@@H](NC(=O)OC)C(C)C)[nH]4)cc(F)c3-2)[nH]1)C1CCOC(C)(C)C1 (single isomer, unassigned) [Compound 446]
IC50 (HCV replicon 1A; Hepatitis C virus): 1.8 pM
IC50 (HCV replicon 1AY93H; [1]): 0.004 nM
IC50 (HCV replicon 2B; read-out: 2B IC50, replicon 2B): 0.005 nM
IC50 (HCV replicon 1AQ30D; [2]): 0.034 nM
IC50 (HCV replicon 1B; Hepatitis C virus): 3.4 pM

COC(=O)NC(C(=O)N1CCC[C@H]1c1ncc(-c2ccc3c(c2)cc2n3C(c3cnc(C4(C)CCCC4)s3)Oc3cc(-c4cnc([C@@H]5CCCN5C(=O)[C@@H](NC(=O)OC)C(C)C)[nH]4)cc(F)c3-2)[nH]1)C1CCOC(C)(C)C1 (single isomer, unassigned) [Compound 447]
IC50 (HCV replicon 1A): 2.8 pM
IC50 (HCV replicon 1AY93H; [1]): 0.259 nM
IC50 (HCV replicon 2B; read-out: 2B IC50, replicon 2B): 0.059 nM
IC50 (HCV replicon 1AQ30D; [2]): 0.607 nM
IC50 (HCV replicon 1B): 3.3 pM
